Reference: the NIST ThermoML archive (doi:10.1021/acs.jced.8b00067)
Several values for one entry are separate records, joined by “and”; a condition that tells them apart may be missing. Equal entries are not always repeated.

Columns and labels:
[1] = 101.3 kPa, Liquid, Vibrating tube method
[2] = xn = mol fraction of the nth substance listed; settings: 101.3 kPa, Liquid, Vibrating tube method

ClCCCl [1,2-dichloroethane]
[1]
Settings	mass density
288.15 K	1260.35 kg/m3
298.15 K	1245.75 kg/m3 and 1245.76 kg/m3
308.15 K	1231.16 kg/m3
318.15 K	1216.56 kg/m3

ClCCCl [1,2-dichloroethane] + C1COCCO1
mass density [kg/m3], [2]
Settings	288.15 K	298.15 K	308.15 K	318.15 K
x2 = 0	1260.35	1245.75	1231.16	1216.56
x2 = 0.05	1247.73	1233.53	1219.2	1204.74
x2 = 0.15	1223.15	1209.44	1195.6	1181.63
x2 = 0.25	1199.18	1185.91	1172.52	1159.01
x2 = 0.35	1175.98	1163.09	1150.11	1137.01
x2 = 0.45	1153.2	1140.69	1128.08	1115.36
x2 = 0.5	1142.13	1129.79	1117.34	1104.79
x2 = 0.55	1131.22	1119.02	1106.74	1094.34
x2 = 0.65	1109.63	1097.72	1085.72	1073.62
x2 = 0.75	1088.81	1077.13	1065.38	1053.55
x2 = 0.85	1068.59	1057.12	1045.59	1033.98
x2 = 0.95	1048.8	1037.49	1026.13	1014.72

ClCCCl [1,2-dichloroethane] + CC(C)O
mass density [kg/m3], [2]
Settings	288.15 K	298.15 K	308.15 K	318.15 K
x2 = 0	1260.35	1245.75	1231.16	1216.56
x2 = 0.05	1235.77	1221.42	1206.94	1192.32
x2 = 0.15	1188.35	1174.26	1160	1145.58
x2 = 0.25	1141.45	1127.77	1113.89	1099.81
x2 = 0.35	1094.84	1081.66	1068.25	1054.61
x2 = 0.45	1048.69	1036.08	1023.22	1010.09
x2 = 0.5	1025.43	1013.12	1000.56	987.72
x2 = 0.55	1001.94	989.96	977.71	965.17
x2 = 0.65	955.61	944.31	932.73	920.85
x2 = 0.75	908.94	898.38	887.54	876.36
x2 = 0.849	862.18	852.45	842.41	832.03
x2 = 0.949	814.66	805.84	796.72	787.26
x2 = 0.95	814.18	805.36	796.25	786.79

ClCCCl [1,2-dichloroethane] + CCCO
mass density, [2]
Settings	288.15 K	298.15 K	308.15 K	318.15 K
x2 = 0	1260.35 kg/m3	1245.75 kg/m3	1231.16 kg/m3	1216.56 kg/m3
x2 = 0.026	1248.39 kg/m3	1234.01 kg/m3	1219.5 kg/m3	1204.86 kg/m3
x2 = 0.05	1237.53 kg/m3 and 1237.37 kg/m3	1223.22 kg/m3 and 1223.08 kg/m3	1208.79 kg/m3 and 1208.64 kg/m3	1194.22 kg/m3 and 1194.08 kg/m3
x2 = 0.1	1215.38 kg/m3	1201.26 kg/m3	1187.01 kg/m3	1172.6 kg/m3
x2 = 0.122	1205.69 kg/m3	1191.67 kg/m3	1177.5 kg/m3	1163.18 kg/m3
x2 = 0.149	1193.33 kg/m3	1179.47 kg/m3	1165.44 kg/m3	1151.24 kg/m3
x2 = 0.25	1149.08 kg/m3	1135.78 kg/m3	1122.28 kg/m3	1108.59 kg/m3
x2 = 0.35	1104.87 kg/m3	1092.18 kg/m3	1079.29 kg/m3	1066.19 kg/m3
x2 = 0.45	1060.3 kg/m3	1048.27 kg/m3	1036.04 kg/m3	1023.57 kg/m3
x2 = 0.55	1015.43 kg/m3	1004.09 kg/m3	992.55 kg/m3	980.78 kg/m3
x2 = 0.645	972.3 kg/m3	961.66 kg/m3	950.81 kg/m3	939.73 kg/m3
x2 = 0.75	924.58 kg/m3	914.71 kg/m3	904.65 kg/m3	894.38 kg/m3
x2 = 0.85	878.59 kg/m3	869.49 kg/m3	860.21 kg/m3	850.73 kg/m3
x2 = 0.899	855.66 kg/m3	846.93 kg/m3	838.05 kg/m3	828.97 kg/m3
x2 = 0.95	831.69 kg/m3	823.36 kg/m3	814.89 kg/m3	806.24 kg/m3
x2 = 0.974	820.39 kg/m3	812.24 kg/m3	803.95 kg/m3	795.49 kg/m3
x2 = 0.975	819.73 kg/m3	811.6 kg/m3	803.33 kg/m3	794.89 kg/m3

C1COCCO1 [1,4-dioxane]
[1]
Settings	mass density [kg/m3]
288.15 K	1039.12
298.15 K	1027.84
308.15 K	1016.57
318.15 K	1005.29

C1COCCO1 [1,4-dioxane] + CC(C)O
mass density [kg/m3], [2]
Settings	288.15 K	298.15 K	308.15 K	318.15 K
x1 = 0.05	802.95	794.39	785.56	776.41
x1 = 0.15	829.25	820.23	810.98	801.46
x1 = 0.25	855.23	845.83	836.22	826.38
x1 = 0.35	880.71	870.97	861.05	850.93
x1 = 0.449	905.45	895.43	885.24	874.87
x1 = 0.5	918.21	908.04	897.73	887.25
x1 = 0.55	930.47	920.18	909.74	899.16
x1 = 0.651	955.14	944.61	933.97	923.2
x1 = 0.75	979.12	968.37	957.54	946.6
x1 = 0.85	1003.42	992.5	981.49	970.39
x1 = 0.95	1027.3	1016.17	1004.99	993.74
x1 = 1	1039.12	1027.84	1016.57	1005.29

C1COCCO1 [1,4-dioxane] + CCCO
mass density, [2]
Settings	288.15 K	298.15 K	308.15 K	318.15 K
x1 = 0.05	820.78 kg/m3	812.62 kg/m3	804.33 kg/m3	795.88 kg/m3
x1 = 0.15	846.12 kg/m3	837.54 kg/m3	828.82 kg/m3	819.95 kg/m3
x1 = 0.249	870.65 kg/m3	861.62 kg/m3	852.49 kg/m3	843.22 kg/m3
x1 = 0.35	894.72 kg/m3 and 894.75 kg/m3	885.38 kg/m3 and 885.41 kg/m3	875.91 kg/m3 and 875.94 kg/m3	866.3 kg/m3 and 866.33 kg/m3
x1 = 0.45	918.23 kg/m3	908.54 kg/m3	898.73 kg/m3	888.78 kg/m3
x1 = 0.496	928.74 kg/m3	918.89 kg/m3	908.94 kg/m3	898.85 kg/m3
x1 = 0.55	941.07 kg/m3 and 941.11 kg/m3	931.06 kg/m3 and 931.09 kg/m3	920.95 kg/m3 and 920.97 kg/m3	910.71 kg/m3 and 910.73 kg/m3
x1 = 0.65	963.51 kg/m3	953.2 kg/m3	942.79 kg/m3	932.28 kg/m3
x1 = 0.75	985.54 kg/m3 and 985.58 kg/m3	974.94 kg/m3 and 974.98 kg/m3	964.26 kg/m3 and 964.29 kg/m3	953.5 kg/m3 and 953.51 kg/m3
x1 = 0.849	1006.97 kg/m3	996.12 kg/m3	985.2 kg/m3	974.19 kg/m3
x1 = 0.948	1028.13 kg/m3	1017.05 kg/m3	1005.9 kg/m3	994.68 kg/m3
x1 = 0.95	1028.45 kg/m3	1017.36 kg/m3	1006.21 kg/m3	995 kg/m3
x1 = 1	1039.12 kg/m3	1027.84 kg/m3	1016.57 kg/m3	1005.29 kg/m3

C1COCCO1 [1,4-dioxane] + ClCCCl
[2], x1 = 1
Settings	mass density [kg/m3]
288.15 K	1039.12
298.15 K	1027.84
308.15 K	1016.57
318.15 K	1005.29

CCCO [propan-1-ol]
[1]
Settings	mass density [kg/m3]
288.15 K	807.86
298.15 K	799.78
308.15 K	791.71
318.15 K	783.64

CCCO [propan-1-ol] + C1COCCO1
[2], x2 = 0
Settings	mass density [kg/m3]
288.15 K	807.86
298.15 K	799.78
308.15 K	791.71
318.15 K	783.64

CCCO [propan-1-ol] + ClCCCl
[2], x1 = 1
Settings	mass density [kg/m3]
288.15 K	807.86
298.15 K	799.78
308.15 K	791.71
318.15 K	783.64

CC(C)O [propan-2-ol]
[1]
Settings	mass density [kg/m3]
288.15 K	789.68
298.15 K	781.08
308.15 K	772.48
318.15 K	763.88

CC(C)O [propan-2-ol] + C1COCCO1
[2], x2 = 0
Settings	mass density [kg/m3]
288.15 K	789.68
298.15 K	781.08
308.15 K	772.48
318.15 K	763.88

CC(C)O [propan-2-ol] + ClCCCl
[2], x1 = 1
Settings	mass density [kg/m3]
288.15 K	789.68
298.15 K	781.08
308.15 K	772.48
318.15 K	763.88
